Source: patent US20260200975A1, “PEPTIDE FOR CARTILAGE REGENERATION, AND USES THEREOF” (CAREGEN CO., LTD., priority 2022, published 2026)
Peptide text beside a SMILES is read from it.

Test system: human-derived chondrocytes (C28/12, human chondrocyte cell line)
Test: Cytotoxicity by CCK-8 assay
Format: cell-based
Conditions: C28/12 cells, different concentrations, 3 days, absorbance 450 nm
Experimental: The cytotoxicity of Peptide-1 or Peptide-2 upon addition to human-derived chondrocytes (C28/12, human chondrocyte cell line) was analyzed using a CCK-8 assay.
Specifically, human-derived chondrocytes were seeded in a 96-well plate at a density of 3×10^3 cells/well and cultured in DMEM medium (cat. 11995-065, Gibco) for 24 hours. […] Meanwhile, as a positive control group, one to which TGFβ1 (20 ng/ml) was added was used.

| Structure (SMILES) | toxicity in human-derived chondrocytes (CCK-8 activity) |
| --- | --- |
| N[C@@H](CCC(=O)O)C(=O)N[C@@H](Cc1ccc(O)cc1)C(=O)N[C@@H](Cc1ccccc1)C(=O)N[C@@H](Cc1c[nH]c2ccccc12)C(=O)O [Peptide-1, Glu(E)-Tyr(Y)-Phe(F)-Trp(W)] (H-EYFW-OH) | did not exhibit toxicity |
| CC(C)C[C@H](NC(=O)[C@@H](NC(=O)[C@@H](N)CCCNC(=N)N)[C@@H](C)O)C(=O)O [Peptide-2, Arg(R)-Thr(T)-Leu(L)] (H-Arg-Thr-Leu-OH) | did not exhibit toxicity |
